Legend:
Human LBAT = biological target: T1, Human LBAT (Homo sapiens, UniProt Q14973); assay: LBAT (h/m) assay, human LBAT-overexpressing cells, 3H-taurocholic acid uptake; type: cell-based; details: 0.3 μM 3H-taurocholic acid and 7.5 μM cold taurocholic acid, 20 minutes, read-out: hLBAT IC50
T1 construct: expressed in transfected cells; Geneticin selection
T1 sequence (Q14973 1-349): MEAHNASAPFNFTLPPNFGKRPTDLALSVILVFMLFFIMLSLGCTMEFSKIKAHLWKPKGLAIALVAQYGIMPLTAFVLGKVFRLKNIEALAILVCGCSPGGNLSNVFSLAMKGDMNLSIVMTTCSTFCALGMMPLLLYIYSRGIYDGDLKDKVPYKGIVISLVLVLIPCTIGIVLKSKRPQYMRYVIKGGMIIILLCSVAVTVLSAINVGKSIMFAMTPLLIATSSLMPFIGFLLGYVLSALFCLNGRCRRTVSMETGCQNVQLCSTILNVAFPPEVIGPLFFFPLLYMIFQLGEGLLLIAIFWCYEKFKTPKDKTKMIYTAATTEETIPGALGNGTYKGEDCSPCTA
Method: 20,000 cells (Human or Mouse LBAT-overexpressing cells) were seeded in 96-wells plate (Corning CLS3809) in 100 μL MEM-alpha medium (Gibco 12571-063) supplemented with 10% FBS (Gibco 10438026) containing Geneticin (Gibco 10131-027) (1 mg/mL) and incubated at 37° C. in 5% CO2 for 24 hours. After incubation, media was decanted from the wells and cells were washed two times with 300 μL of basal MEM-alpha medium (FBS-free). After decanting basal MEM-alpha medium each time, plates were tapped against paper towel to ensure maximum removal of residual media.
For human LBAT, incubation mix was prepared by adding test inhibitor dilutions (3-fold serial dilution in DMSO (Sigma D2650), 10 points) in MEM-alpha (without FBS) containing 0.3 μM 3H-taurocholic acid (ARC ART-1368) and 7.5 μM cold taurocholic acid (Sigma T4009) (maintaining 0.2% final DMSO concentration). For mouse LBAT, incubation mix was prepared by adding test inhibitor dilutions (3-fold serial dilution in DMSO, 10 points) in MEM-alpha (without FBS) containing 0.3 μM 3H-taurocholic acid and 25 μM cold taurocholic acid maintaining 0.2% final DMSO concentration).
50 μL of incubation mix containing test inhibitors was then added to the wells (in duplicate) and the plates were incubated for 20 minutes in a CO2 incubator at 37° C. After incubation, the reaction was stopped by keeping the plates on ice water mix for 2-3 minutes and then the incubation mix was aspirated completely from the wells. The wells were washed two times with 250 μL of chilled unlabeled 1 mM taurocholic acid dissolved in HEPES (Gibco 15630080)-buffered (10 mM) HBSS (Gibco 14175079) (pH 7.4). The plates were tapped against a paper towel after every wash to ensure maximum removal of blocking buffer.
100 μL of MicroScint-20 (PerkinElmer 6013621) was added to the wells and kept overnight at room temperature before reading the plates in TopCount NXT™ Microplate Scintillation and Luminescence Counter from PerkinElmer under 3H Test protocol (set at 120 seconds reading time per well, with normal plate orientation).
(§1) All test compounds were provided in powder form at room temperature. 10 mM DMSO stocks of the test compounds were prepared, aliquoted and stored at −20° C. From the 10 mM DMSO stock of the compounds, a 3-fold serial dilution in DMSO was prepared to get a total of 10 dilutions of the test compounds. 0.5 μL of this dilution in DMSO was added to 250 μL of FBS-free basal media containing 3H-taurocholic acid and cold taurocholic acid to prepare the incubation mixture.

Human IBAT = biological target: T2, Human IBAT (Homo sapiens, UniProt Q12908); assay: IBAT (h/m) assay, human IBAT-overexpressing cells, 3H-taurocholic acid uptake; type: cell-based; details: highest test concentration 10 μM, 20 minutes, read-out: hIBAT IC50
T2 construct: expressed in transfected cells; Puromycin selection
T2 sequence (Q12908 1-348): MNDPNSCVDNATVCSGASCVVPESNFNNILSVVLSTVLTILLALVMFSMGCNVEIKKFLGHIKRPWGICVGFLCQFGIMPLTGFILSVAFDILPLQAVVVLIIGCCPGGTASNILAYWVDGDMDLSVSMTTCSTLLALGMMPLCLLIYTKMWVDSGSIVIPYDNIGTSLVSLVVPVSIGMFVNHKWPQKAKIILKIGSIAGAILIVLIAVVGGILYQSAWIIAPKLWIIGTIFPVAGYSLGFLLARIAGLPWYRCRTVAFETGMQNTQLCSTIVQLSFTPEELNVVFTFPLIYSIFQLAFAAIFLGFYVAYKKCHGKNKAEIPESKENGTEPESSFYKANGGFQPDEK
Method: 10,000 cells (Human or Mouse IBAT-overexpressing cells) were seeded in 96-wells plate (Corning CLS3809) in 200 μL MEM-alpha medium (Gibco 12571-063) supplemented with 10% FBS (Gibco 10438026) containing Puromycin (Gibco A1113803) (10 μg/mL) and incubated at 37° C. in 5% CO2 for 48 hours. After incubation, media was decanted from the wells and cells were washed two times with 300 μL of basal MEM-alpha medium (FBS-free). After decanting basal MEM-alpha medium each time, plates were tapped against paper towel to ensure maximum removal of residual media. Test inhibitor dilutions (highest test concentration being 10 μM, 3-fold serial dilution, 10 points) prepared in DMSO (Sigma D2650) were added in incubation mix (maintaining 0.2% final DMSO concentration) containing 0.25 μM 3H-taurocholic acid (ARC ART-1368) and 5 μM of cold taurocholic acid (Sigma T4009). 50 μL of incubation mix containing test inhibitors was then added to the wells (in duplicate) and the plates were incubated for 20 minutes in a CO2 incubator at 37° C. After incubation, the reaction was stopped by keeping the plates on ice water mix for 2-3 minutes and then the incubation mix was aspirated completely from the wells. The wells were washed two times with 250 μL of chilled unlabeled 1 mM taurocholic acid dissolved in HEPES (Gibco 15630080)-buffered (10 mM) HBSS (Gibco 14175079) (pH 7.4). The plates were tapped against a paper towel after every wash to ensure maximum removal of blocking buffer.
100 μL of MicroScint-20 (PerkinElmer 6013621) was added to the wells and kept overnight at room temperature before reading the plates in TopCount NXT™ Microplate Scintillation and Luminescence Counter from PerkinElmer under 3H Test protocol (set at 120 seconds reading time per well).
as §1

| SMILES | IC50 (Human LBAT) [nM] | IC50 (Human IBAT) [nM] |
| --- | --- | --- |
| CCCCC1CN(c2ccccc2)c2cc(SC)c(O/C=C/C(=O)O)cc2S(=O)(=O)N1C (racemic) [Example 14, (E)-3-((3-butyl-2-methyl-7-(methylthio)-1,1-dioxido-5-phenyl-2,3,4,5-tetrahydro-1,2,5-benzothiadiazepin-8-yl)oxy)acrylic Acid] | 3.4 |  |
| CCCCC1CN(c2ccccc2)c2cc(SCC)c(O/C=C/C(=O)O)cc2S(=O)(=O)N1C (racemic) [Example 17, (E)-3-((3-butyl-7-(ethylthio)-2-methyl-1,1-dioxido-5-phenyl-2,3,4,5-tetrahydro-1,2,5-benzothiadiazepin-8-yl)oxy)acrylic Acid] | 2.3 |  |
| CCCCC1CN(c2ccc(F)cc2)c2cc(SC)c(O/C=C/C(=O)O)cc2S(=O)(=O)N1C (racemic) [Example 20, (E)-3-((3-butyl-5-(4-fluorophenyl)-2-methyl-7-(methylthio)-1,1-dioxido-2,3,4,5-tetrahydro-1,2,5-benzothiadiazepin-8-yl)oxy)acrylic Acid] | 4.5 | 1150 |
| CCCCC1CN(c2ccc(F)cc2)c2cc(SC)c(O/C=C/C(=O)O)cc2S(=O)(=O)C1 (racemic) [Example 26, (E)-3-((3-butyl-5-(4-fluorophenyl)-7-(methylthio)-1,1-dioxido-2,3,4,5-tetrahydro-1,5-benzothiazepin-8-yl)oxy)acrylic Acid] | 8.7 | > 10000 |
| CCCC[C@@H]1CN(c2ccccc2)c2cc(SC)c(O/C=C/C(=O)O)cc2S(=O)(=O)C1 (single isomer, unassigned) [Example 2] | 469 |  |
| CCCC[C@H]1CN(c2ccccc2)c2cc(SC)c(O/C=C(\F)C(=O)O)cc2S(=O)(=O)C1 (single isomer, unassigned) [Example 5] | 28 |  |
| CCCC[C@H]1CN(c2ccccc2)c2cc(SC)c(O/C=C(\F)C(=O)O)cc2S(=O)(=O)N1C (single isomer, unassigned) [Example 12] | 78 |  |
| CCCC[C@@H]1CN(c2ccccc2)c2cc(SC)c(O/C=C/C(=O)O)cc2S(=O)(=O)N1C (single isomer, unassigned) [Example 16] | 105 |  |
| CCCC[C@@H]1CN(c2ccccc2)c2cc(SCC)c(O/C=C/C(=O)O)cc2S(=O)(=O)N1C (single isomer, unassigned) [Example 19] | 70 | > 10000 |
| CCCC[C@H]1CN(c2ccc(F)cc2)c2cc(SC)c(O/C=C/C(=O)O)cc2S(=O)(=O)N1C (single isomer, unassigned) [Example 21] | 3 | 644 |
| CCCC[C@@H]1CN(c2ccc(F)cc2)c2cc(SC)c(O/C=C/C(=O)O)cc2S(=O)(=O)N1C (single isomer, unassigned) [Example 22] | 591 | > 10000 |
| CCCC[C@H]1CN(c2ccc(F)cc2)c2cc(SCC)c(O/C=C/C(=O)O)cc2S(=O)(=O)N1C (single isomer, unassigned) [Example 24] | 0.34 | 265 |
| CCCC[C@@H]1CN(c2ccc(F)cc2)c2cc(SCC)c(O/C=C/C(=O)O)cc2S(=O)(=O)N1C (single isomer, unassigned) [Example 25] | 267 |  |
| CCCC[C@H]1CN(c2ccc(F)cc2)c2cc(SC)c(O/C=C/C(=O)O)cc2S(=O)(=O)C1 (single isomer, unassigned) [Example 27] | 354 | > 10000 |
| CCCC[C@@H]1CN(c2ccc(F)cc2)c2cc(SC)c(O/C=C/C(=O)O)cc2S(=O)(=O)C1 (single isomer, unassigned) [Example 28] | 1.9 | > 3330 |
| CCC1CN(c2ccccc2)c2cc(SC)c(O/C=C(\F)C(=O)O)cc2S(=O)(=O)C1 (centres unmarked) [Example 7, (Z)-3-((3-ethyl-7-(methylthio)-1,1-dioxido-5-phenyl-2,3,4,5-tetrahydro-1,5-benzothiazepin-8-yl)oxy)-2-fluoroacrylic Acid] | 73 |  |
| CCC1CN(c2ccccc2)c2cc(SC)c(O/C=C/C(=O)O)cc2S(=O)(=O)C1 (centres unmarked) [Example 8, (E)-3-((3-ethyl-7-(methylthio)-1,1-dioxido-5-phenyl-2,3,4,5-tetrahydro-1,5-benzothiazepin-8-yl)oxy)acrylic Acid] | 242 |  |
| CCCCC1CN(c2ccccc2)c2cc(SC)c(O/C=C/C(=O)O)cc2S(=O)(=O)N1 (centres unmarked) [Example 9, (E)-3-((3-butyl-7-(methylthio)-1,1-dioxido-5-phenyl-2,3,4,5-tetrahydro-1,2,5-benzothiadiazepin-8-yl)oxy)acrylic Acid] | 8.2 |  |
| CCCCC1CN(c2ccccc2)c2cc(SC)c(O/C=C(\F)C(=O)O)cc2S(=O)(=O)N1C (centres unmarked) [Example 11, (Z)-3-((3-butyl-2-methyl-7-(methylthio)-1,1-dioxido-5-phenyl-2,3,4,5-tetrahydro-1,2,5-benzothiadiazepin-8-yl)oxy)-2-fluoroacrylic Acid] | 1.1 | 830 |
| CCCCC1CN(c2ccccc2)c2cc(SCC)c(O/C=C/C(=O)O)cc2S(=O)(=O)C1 (centres unmarked) [Example 30, (E)-3-((3-Butyl-7-(ethylthio)-1,1-dioxido-5-phenyl-2,3,4,5-tetrahydro-1,5-benzothiazepin-8-yl)oxy)acrylic Acid] | 9.5 | > 10000 |
| CCCCC1CN(c2ccccc2)c2cc(SCC)c(O/C=C/C(=O)O)cc2S(=O)(=O)N1 (centres unmarked) [Example 31, (E)-3-((3-Butyl-7-(ethylthio)-1,1-dioxido-5-phenyl-2,3,4,5-tetrahydro-1,2,5-benzothiadiazepin-8-yl)oxy)acrylic Acid] |  | > 10000 |
| CCCCC1CN(c2ccc(F)cc2)c2cc(SCC)c(O/C=C/C(=O)O)cc2S(=O)(=O)C1 (centres unmarked) [Example 32, (E)-3-((3-Butyl-7-(ethylthio)-5-(4-fluorophenyl)-1,1-dioxido-2,3,4,5-tetrahydro-1,5-benzothiazepin-8-yl)oxy)acrylic Acid] |  | > 10000 |

— US11708340B2, “Benzothia(di)azepine compounds and their use as bile acid modulators” (Albireo AB, priority 2019, dated 2023)
